In patent US20220408731A1, “MODIFIED ANTIMICROBIAL PEPTIDES” (priority 2021, published 2022):
In brackets after ≈: the same amount, converted by molar mass. Like-named read-outs stand apart in the source and are kept apart here. Square brackets hold non-standard residues; d marks the D form. Peptide text beside a SMILES is read from it. Dab = NCC[C@H](N)C(=O)O

Tests used:
C. albicans = assay: Peptide or protein/Fluconazole combination, MIC and FICI; details: Candida albicans
C. glabrata = assay: as above; details: Nakaseomyces glabratus
F. oxysporum = assay: Antifungal MIC assay in SFM; assay type: cell-based
P. capsici = assay: Antifungal MIC assay in SFM; assay type: cell-based
Coccidioides sp. = assay type: cell-based
Candida auris = assay: Antifungal MIC, CLSI M27/M38, half-strength potato dextrose broth; assay type: cell-based
Description: (§1) Testing for antifungal activity used half-strength potato dextrose broth for peptides and RPMI for comparator antifungals fluconazole and voriconazole. CLSI M27 and M38 methodologies used for to measure MICs. Minimal Inhibitory Concentration (MIC) is the concentration of the compound, protein, or peptide at which there is no significant growth of the microorganism relative to the growth of the microorganism in growth medium lacking the compound, protein, or peptide.
(§2) […] The concentration range for peptides in potato dextrose broth was 0.06-2 mcg/ml, the concentration range for fluconazole was 0.125-64 mcg/ml, and the concentration range for voriconazole was 0.03-16 mcg/ml. MICs were determined at 24-72 hours.

P. variotii = assay: as above; assay type: cell-based; details: P. variotii MYA-363; 24-72 hours
Description: as §1, §2

Fusarium (F. solani) = assay: as above; assay type: cell-based; details: Fusarium F4 (F. solani)
Description: as §1, §2

Aspergillus fumigatus = assay: as above; assay type: cell-based
Description: as §1, §2

Candida albicans = assay: as above; assay type: cell-based
Description: as §1, §2

Fusarium (F. oxysporum) = assay: as above; assay type: cell-based
Description: as §1, §2

C. krusei = assay: as above; assay type: cell-based; details: C. krusei ATCC 6258; 24-72 hours
Description: as §1, §2

C. parapsilosis = assay: as above; assay type: cell-based, Candida parapsilosis; details: C. parapsilosis ATCC 22019; 24-72 hours
Description: as §1, §2

OC(Cn1cncn1)(Cn1cncn1)c1ccc(F)cc1F [Fluconazole]
MIC (C. albicans; read-out: MIC alone (μM)): 206 µM | MIC (C. albicans; read-out: MIC alone μg/ml): 64 µg/mL | MIC (C. glabrata; read-out: MIC alone (μM)): 206 µM | MIC (C. glabrata; read-out: MIC alone μg/ml): 64 µg/mL

C[C@@H](O)[C@H](NC(=O)[C@H](CS)NC(=O)[C@H](Cc1ccccc1)NC(=O)[C@H](CS)NC(=O)[C@H](CCCNC(=N)N)NC(=O)[C@H](CCCNC(=N)N)NC(=O)[C@H](CCCNC(=N)N)NC(=O)[C@H](Cc1ccccc1)NC(=O)CNC(=O)[C@H](CCCNC(=N)N)NC(=O)[C@H](CS)NC(=O)[C@H](CCCNC(=N)N)NC(=O)CNC(=O)CN)C(=O)N[C@H](C(=O)N[C@@H](Cc1c[nH]cn1)C(=O)N[C@@H](CS)C(N)=O)[C@@H](C)O [GMA4C_AC, reference compound] (H-GGRCRGFRRRCFCTTHC-NH2; N-terminus assumed)
F. graminearum MIC (Fusarium graminearum): 3 µM | MIC (μM) Fusarium graminearum (Fusarium graminearum): 3 µM (≈ 6.05 µg/mL) | MIC Values (μM) against F. graminearum (Fusarium graminearum): 6 µM (≈ 12.1 µg/mL) | F. oxysporum MIC (F. oxysporum): 6 µM | P. capsici MIC (P. capsici): 1.5 µM | Antifungal activity in presence of 100 mM NaCl or 100 mM KCl (Botrytis cinerea): retain their antifungal activity | B. cinerea MIC (Botrytis cinerea): 1.5 to 3.0 µM | MIC (μM) Botrytis cinerea (Botrytis cinerea): 3 µM (≈ 6.05 µg/mL) | MIC Values (μM) against B. cinerea (Botrytis cinerea): 3 µM (≈ 6.05 µg/mL) | SFM + 2 mM CaCl2 MIC (Botrytis cinerea): >6 µM | SFM + 100 mM KCl MIC (Botrytis cinerea): 6 µM | SFM + 100 mM NaCl MIC (Botrytis cinerea): 3 µM | SFM MIC (Botrytis cinerea): 3 µM

NCC[C@H](NC(=O)CNC(=O)[C@@H](N)Cc1ccccc1)C(=O)N[C@@H](CS)C(=O)N[C@@H](CCN)C(=O)NCC(=O)N[C@@H](Cc1ccccc1)C(=O)N[C@@H](CCN)C(=O)N[C@@H](CCN)C(=O)N[C@@H](CCN)C(=O)N[C@@H](CS)C(=O)N[C@@H](Cc1ccccc1)C(=O)N[C@@H](CS)C(=O)N[C@@H](Cc1c[nH]c2ccccc12)C(=O)N[C@@H](CCN)C(=O)N[C@@H](Cc1c[nH]c2ccccc12)C(=O)N[C@@H](CS)C(N)=O [GMA4C_V5A, FG(Dab)C(Dab)GF(Dab)(Dab)(Dab)CFCW(Dab)WC-NH2] (H-FG[Dab]C[Dab]GF[Dab][Dab][Dab]CFCW[Dab]WC-NH2; N-terminus assumed)
MIC 100% (Coccidioides sp.; Coccidioides sp. Cocci1): 2 µg/mL (≈ 1.02 µM) | MIC 100% (Coccidioides sp.; Coccidioides sp. Cocci2): 16 µg/mL (≈ 8.17 µM) | MIC 100% (Coccidioides sp.; Coccidioides sp. DI17-143): 16 µg/mL (≈ 8.17 µM) | MIC 100% (Candida auris; Candida auris DI17-46): 16 µg/mL (≈ 8.17 µM) | MIC 100% (Candida auris; Candida auris DI17-47): 16 µg/mL (≈ 8.17 µM) | MIC 100% (Candida auris; Candida auris DI17-48): 16 µg/mL (≈ 8.17 µM) | MIC 100% (P. variotii): 4 µg/mL (≈ 2.04 µM) | MIC 100% (Fusarium (F. solani)): 8 µg/mL (≈ 4.08 µM) | MIC 100% (Aspergillus fumigatus; Aspergillus fumigatus AF293): 32 µg/mL (≈ 16.3 µM) | MIC 100% (Aspergillus fumigatus; Aspergillus fumigatus DI15-106): >32 µg/mL | MIC 100% (Aspergillus fumigatus; Aspergillus fumigatus DI15-116): >32 µg/mL | MIC 100% (Candida albicans; Candida albicans ATCC 90028): 16 µg/mL (≈ 8.17 µM) | MIC 100% (Candida albicans; Candida albicans CA3): 8 µg/mL (≈ 4.08 µM) | MIC 100% (Candida albicans; Candida albicans SC5314): 16 µg/mL (≈ 8.17 µM) | MIC 100% (Fusarium (F. oxysporum); Fusarium F1 (F. oxysporum)): 8 µg/mL (≈ 4.08 µM) | MIC 100% (Fusarium (F. oxysporum); Fusarium F2 (F. oxysporum)): 16 µg/mL (≈ 8.17 µM) | MIC 100% (C. krusei): 8 µg/mL (≈ 4.08 µM) | MIC 100% (C. parapsilosis): 8 µg/mL (≈ 4.08 µM) | MIC (μM) Botrytis cinerea (Botrytis cinerea): 6 µM (≈ 11.8 µg/mL) | MIC Values (μM) against B. cinerea (Botrytis cinerea): 3 µM (≈ 5.88 µg/mL) | SFM + 2 mM CaCl2 MIC (Botrytis cinerea): >6 µM | SFM + 100 mM KCl MIC (Botrytis cinerea): >6 µM | SFM + 100 mM NaCl MIC (Botrytis cinerea): 6 µM | SFM MIC (Botrytis cinerea): 6 µM
